Source: patent US6358885B1, “Substituted phenylheterocyclic herbicides” (Mississippi State University, priority 1992, dated 2002)

Key:
barley = test: Test B preemergence/postemergence greenhouse plant response rating 0 to 10; format: in vivo, Hordeum vulgare; conditions: for Plant response rating, Barley: 0 to 10 scale
Method in brief: (§1)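 Test chemicals were sprayed onto freshly planted seed and, concurrently, onto young plants between the one and four leaf stage. After a twelve- to sixteen-day greenhouse period, each species was visually compared with untreated controls.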

bedstraw = test: as above; format: in vivo, Galium aparine; conditions: for Plant response rating, Bedstraw: 0 to 10 scale
Method in brief: as §1

blackgrass [1] = test: as above; format: in vivo, Alopecurus myosuroides; conditions: for Plant response rating, Blackgrass: POSTEMERGENCE, 0 to 10 scale
Method in brief: as §1

cheatgrass = test: as above; format: in vivo, Bromus secalinus; conditions: for Plant response rating, Cheatgrass: 0 to 10 scale
Method in brief: as §1

cocklebur = test: as above; format: in vivo, Xanthium pensylvanicum; conditions: for Plant response rating, Cocklebur: 0 to 10 scale
Method in brief: as §1

cotton = test: as above; format: in vivo, Gossypium hirsutum; conditions: for Plant response rating, Cotton: 0 to 10 scale
Method in brief: as §1

rice = test: as above; format: in vivo, Oryza sativa; conditions: for Plant response rating, Rice: 0 to 10 scale
Method in brief: as §1

wild buckwheat = test: as above; format: in vivo, Polygonum convolvulus; conditions: for Plant response rating, Wild buckwheat: 0 to 10 scale
Method in brief: as §1

blackgrass [2] = test: Test C preemergence/postemergence greenhouse plant response rating 0 to 100; format: in vivo, Alopecurus myosuroides; conditions: for Plant response rating, Blackgrass: 0 to 100 scale
Method in brief: (§2)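 Compounds in non-phytotoxic solvent applied preemergence to sandy loam one day after planting, postemergence at the 1–4 leaf stage, or to ~2.5 cm floodwater over silt loam.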

corn = test: as above; format: in vivo, Zea mays; conditions: for Plant response rating, Corn: 0 to 100 scale
Method in brief: as §2

giant foxtail = test: as above; format: in vivo, Setaria faberii; conditions: for Plant response rating, Giant foxtail: 0 to 100 scale
Method in brief: as §2

lambsquarters = test: as above; format: in vivo, Chenopodium album; conditions: for Plant response rating Lambsquarters: 0 to 100 scale
Method in brief: as §2

rape = test: as above; format: in vivo, Brassica napus; conditions: for Plant response rating, Rape: 0 to 100 scale
Method in brief: as §2

ryegrass = test: as above; format: in vivo, Lolium multiflorum; conditions: for Plant response rating Ryegrass: 0 to 100 scale
Method in brief: as §2

sugar beet = test: as above; format: in vivo, Beta vulgaris; conditions: for Plant response rating, Sugar beet: 0 to 100 scale
Method in brief: as §2

wheat = test: as above; format: in vivo, Triticum aestivum; conditions: for Plant response rating, Wheat: 0 to 100 scale
Method in brief: as §2

duck salad = test: Test C flood test plant response rating 0 to 100; format: in vivo, Heteranthera limosa; conditions: for Plant response rating Duck salad: flood test species listed under POSTEMERGENCE, 0 to 100 scale
Method in brief: as §2

barnyardgrass = test: Test C flood test plant response rating 0 to 100; format: in vivo, Echinochloa crus-galli; conditions: for Plant response rating Barnyardgrass 2: flood test species listed under POSTEMERGENCE, 0 to 100 scale
Method in brief: as §2

[3] = POSTEMERGENCE section, flood test, Rate 4 g/ha
[4] = Rate 16 g/ha, under POSTEMERGENCE head (flood test species)

C#CC(C)Oc1cc(-c2nn3c(c2Br)CCCC3)c(F)cc1Cl (centres unmarked) [Compound 66]
Plant response rating, Barley (barley; POSTEMERGENCE, Rate 50 g/ha): 5
Plant response rating, Barley (barley; PREEMERGENCE, Rate 50 g/ha): 0
Plant response rating (0 to 10 scale), Barley (barley; PREEMERGENCE, Rate 200 g/ha): 2
Plant response rating, Barley (barley; Rate 200 g/ha, POSTEMERGENCE): 6
Plant response rating, Bedstraw (bedstraw; POSTEMERGENCE, Rate 50 g/ha): 10
Plant response rating, Bedstraw (bedstraw; PREEMERGENCE, Rate 50 g/ha): 9
Plant response rating (0 to 10 scale), Bedstraw (bedstraw; PREEMERGENCE, Rate 200 g/ha): 10
Plant response rating, Bedstraw (bedstraw; Rate 200 g/ha, POSTEMERGENCE): 10
Plant response rating, Blackgrass (blackgrass [1]; Rate 50 g/ha): 4
Plant response rating (0 to 10 scale), Blackgrass (blackgrass [1]; PREEMERGENCE, Rate 200 g/ha): 7
Plant response rating, Blackgrass (blackgrass [1]; Rate 200 g/ha): 6
Plant response rating, Cheatgrass (cheatgrass; POSTEMERGENCE, Rate 50 g/ha): 3
Plant response rating, Cheatgrass (cheatgrass; PREEMERGENCE, Rate 50 g/ha): 1
Plant response rating (0 to 10 scale), Cheatgrass (cheatgrass; PREEMERGENCE, Rate 200 g/ha): 6
Plant response rating, Cheatgrass (cheatgrass; Rate 200 g/ha, POSTEMERGENCE): 6
Plant response rating, Cocklebur (cocklebur; POSTEMERGENCE, Rate 50 g/ha): 9
Plant response rating, Cocklebur (cocklebur; PREEMERGENCE, Rate 50 g/ha): 0
Plant response rating (0 to 10 scale), Cocklebur (cocklebur; PREEMERGENCE, Rate 200 g/ha): 0
Plant response rating, Cocklebur (cocklebur; Rate 200 g/ha, POSTEMERGENCE): 10
Plant response rating, Cotton (cotton; POSTEMERGENCE, Rate 50 g/ha): 10
Plant response rating, Cotton (cotton; PREEMERGENCE, Rate 50 g/ha): 0
Plant response rating (0 to 10 scale), Cotton (cotton; PREEMERGENCE, Rate 200 g/ha): 0
Plant response rating, Cotton (cotton; Rate 200 g/ha, POSTEMERGENCE): 10
Plant response rating, Rice (rice; POSTEMERGENCE, Rate 50 g/ha): 5
Plant response rating, Rice (rice; PREEMERGENCE, Rate 50 g/ha): 0
Plant response rating (0 to 10 scale), Rice (rice; PREEMERGENCE, Rate 200 g/ha): 0
Plant response rating, Rice (rice; Rate 200 g/ha, POSTEMERGENCE): 6
Plant response rating, Wild buckwheat (wild buckwheat; POSTEMERGENCE, Rate 50 g/ha): 10
Plant response rating, Wild buckwheat (wild buckwheat; PREEMERGENCE, Rate 50 g/ha): 4
Plant response rating (0 to 10 scale), Wild buckwheat (wild buckwheat; PREEMERGENCE, Rate 200 g/ha): 10
Plant response rating, Wild buckwheat (wild buckwheat; Rate 200 g/ha, POSTEMERGENCE): 10
Plant response rating, Blackgrass (blackgrass [2]; POSTEMERGENCE, 62 g/ha): 60
Plant response rating, Blackgrass (blackgrass [2]; POSTEMERGENCE, 250 g/ha): 80
Plant response rating (0 to 100), Blackgrass (blackgrass [2]; POSTEMERGENCE, Rate 4 g/ha): 20
Plant response rating, Blackgrass (blackgrass [2]; PREEMERGENCE, 62 g/ha): 70
Plant response rating, Blackgrass (blackgrass [2]; PREEMERGENCE, 250 g/ha): 70
Plant response rating (0 to 100), Blackgrass (blackgrass [2]; PREEMERGENCE, Rate 4 g/ha): 0
Plant response rating (0 to 100), Blackgrass (blackgrass [2]; Rate 16 g/ha, POSTEMERGENCE): 40
Plant response rating (0 to 100), Blackgrass (blackgrass [2]; Rate 16 g/ha, PREEMERGENCE): 20
Plant response rating, Corn (corn; POSTEMERGENCE, 62 g/ha): 40
Plant response rating, Corn (corn; POSTEMERGENCE, 250 g/ha): 60
Plant response rating (0 to 100), Corn (corn; POSTEMERGENCE, Rate 4 g/ha): 30
Plant response rating, Corn (corn; PREEMERGENCE, 62 g/ha): 0
Plant response rating, Corn (corn; PREEMERGENCE, 250 g/ha): 60
Plant response rating (0 to 100), Corn (corn; PREEMERGENCE, Rate 4 g/ha): 0
Plant response rating (0 to 100), Corn (corn; Rate 16 g/ha, POSTEMERGENCE): 30
Plant response rating (0 to 100), Corn (corn; Rate 16 g/ha, PREEMERGENCE): 0
Plant response rating, Giant foxtail (giant foxtail; POSTEMERGENCE, 62 g/ha): 70
Plant response rating, Giant foxtail (giant foxtail; POSTEMERGENCE, 250 g/ha): 90
Plant response rating (0 to 100), Giant foxtail (giant foxtail; POSTEMERGENCE, Rate 4 g/ha): 30
Plant response rating, Giant foxtail (giant foxtail; PREEMERGENCE, 62 g/ha): 20
Plant response rating, Giant foxtail (giant foxtail; PREEMERGENCE, 250 g/ha): 100
Plant response rating (0 to 100), Giant foxtail (giant foxtail; PREEMERGENCE, Rate 4 g/ha): 0
Plant response rating (0 to 100), Giant foxtail (giant foxtail; Rate 16 g/ha, POSTEMERGENCE): 50
Plant response rating (0 to 100), Giant foxtail (giant foxtail; Rate 16 g/ha, PREEMERGENCE): 0
Plant response rating Lambsquarters (lambsquarters; POSTEMERGENCE, 62 g/ha): 100
Plant response rating Lambsquarters (lambsquarters; POSTEMERGENCE, 250 g/ha): 100
Plant response rating (0 to 100), Lambsquarters (lambsquarters; POSTEMERGENCE, Rate 4 g/ha): 30
Plant response rating Lambsquarters (lambsquarters; PREEMERGENCE, 62 g/ha): 100
Plant response rating Lambsquarters (lambsquarters; PREEMERGENCE, 250 g/ha): 100
Plant response rating (0 to 100), Lambsquarters (lambsquarters; PREEMERGENCE, Rate 4 g/ha): 0
Plant response rating (0 to 100), Lambsquarters (lambsquarters; Rate 16 g/ha, POSTEMERGENCE): 80
Plant response rating (0 to 100), Lambsquarters (lambsquarters; Rate 16 g/ha, PREEMERGENCE): 70
Plant response rating, Rape (rape; POSTEMERGENCE, 62 g/ha): 100
Plant response rating, Rape (rape; POSTEMERGENCE, 250 g/ha): 100
Plant response rating (0 to 100), Rape (rape; POSTEMERGENCE, Rate 4 g/ha): 40
Plant response rating, Rape (rape; PREEMERGENCE, 62 g/ha): 20
Plant response rating, Rape (rape; PREEMERGENCE, 250 g/ha): 30
Plant response rating (0 to 100), Rape (rape; PREEMERGENCE, Rate 4 g/ha): 0
Plant response rating (0 to 100), Rape (rape; Rate 16 g/ha, POSTEMERGENCE): 60
Plant response rating (0 to 100), Rape (rape; Rate 16 g/ha, PREEMERGENCE): 0
Plant response rating Ryegrass (ryegrass; POSTEMERGENCE, 62 g/ha): 50
Plant response rating Ryegrass (ryegrass; POSTEMERGENCE, 250 g/ha): 75
Plant response rating (0 to 100), Ryegrass (ryegrass; POSTEMERGENCE, Rate 4 g/ha): 10
Plant response rating Ryegrass (ryegrass; PREEMERGENCE, 62 g/ha): 50
Plant response rating Ryegrass (ryegrass; PREEMERGENCE, 250 g/ha): 70
Plant response rating (0 to 100), Ryegrass (ryegrass; PREEMERGENCE, Rate 4 g/ha): 0
Plant response rating (0 to 100), Ryegrass (ryegrass; Rate 16 g/ha, POSTEMERGENCE): 30
Plant response rating (0 to 100), Ryegrass (ryegrass; Rate 16 g/ha, PREEMERGENCE): 20
Plant response rating, Sugar beet (sugar beet; POSTEMERGENCE, 62 g/ha): 100
Plant response rating, Sugar beet (sugar beet; POSTEMERGENCE, 250 g/ha): 100
Plant response rating (0 to 100), Sugar beet (sugar beet; POSTEMERGENCE, Rate 4 g/ha): 80
Plant response rating, Sugar beet (sugar beet; PREEMERGENCE, 250 g/ha): 100
Plant response rating (0 to 100), Sugar beet (sugar beet; PREEMERGENCE, Rate 4 g/ha): 0
Plant response rating (0 to 100), Sugar beet (sugar beet; Rate 16 g/ha, POSTEMERGENCE): 100
Plant response rating (0 to 100), Sugar beet (sugar beet; Rate 16 g/ha, PREEMERGENCE): 50
Plant response rating, Wheat (wheat; POSTEMERGENCE, 62 g/ha): 60
Plant response rating, Wheat (wheat; POSTEMERGENCE, 250 g/ha): 70
Plant response rating (0 to 100), Wheat (wheat; POSTEMERGENCE, Rate 4 g/ha): 20
Plant response rating, Wheat (wheat; PREEMERGENCE, 250 g/ha): 70
Plant response rating (0 to 100), Wheat (wheat; PREEMERGENCE, Rate 4 g/ha): 0
Plant response rating (0 to 100), Wheat (wheat; Rate 16 g/ha, POSTEMERGENCE): 40
Plant response rating (0 to 100), Wheat (wheat; Rate 16 g/ha, PREEMERGENCE): 0
Plant response rating (0 to 100), Duck salad (duck salad; [3]): 0
Plant response rating (0 to 100), Duck salad (duck salad; [4]): 30
Plant response rating Duck salad (duck salad; 62 g/ha): 75
Plant response rating Duck salad (duck salad; 250 g/ha): 90
Plant response rating (0 to 100), Barnyardgrass 2 (barnyardgrass; [3]): 10
Plant response rating (0 to 100), Barnyardgrass 2 (barnyardgrass; [4]): 90
Plant response rating Barnyardgrass 2 (barnyardgrass; 62 g/ha): 100
Plant response rating Barnyardgrass 2 (barnyardgrass; 250 g/ha): 100
